The text below walks through data of ChEMBL document CHEMBL4177563, “The medicinal chemistry of Chikungunya virus” (Bioorg Med Chem, 2017).

Usually EC50 stands for the concentration giving half of the maximal effect. Broadly, the IC50 is the point on the concentration scale where inhibition reaches its midpoint. The Ki is the equilibrium dissociation constant of an inhibitor or competing ligand from its target. By CC50 is commonly meant the concentration that lowers cell viability or growth by half.

The subject of data set [1] is Chikungunya virus. Kind of data set: Antiviral activity against Chikungunya virus C347 infected in African green monkey Vero cells assessed as inhibition of viral-induced cytopathic effect after 2 days by microscopic analysis. Type of data set: functional, organism-based. The settings on record: 48 h. For orientation: Cytopathic effects are the visible damage that an infection or toxin causes in cultured cells.

Data set [2] deals with Chikungunya virus. The data set is described as follows: Antiviral activity against Chikungunya virus MY/065/08/FN295485 infected in African green monkey Vero cells assessed as reduction in virus yield after 48 hrs by titration assay. Type of data set: functional, organism-based. As to conditions: MY/065/08/FN295485, Vero.
A short description of data set [3]: Selectivity index, ratio of CC50 for African green monkey Vero cells to IC50 for Chikungunya virus MY/065/08/FN295485. It is filed as toxicity. The settings on record: read-out: Ratio IC50.
Data set [4] in a line: Binding affinity to Chikungunya virus […].
For data set [5], the system named is Chikungunya virus. Kind of data set: Antiviral activity against Chikungunya virus LR2006-OPY1 infected in BHK21 cells after 48 hrs by luciferase reporter gene assay. It is filed as functional, organism-based. As to conditions: LR2006-OPY1, BHK-21, 48 h. A general note: A reporter such as luciferase makes a cellular process visible.
Data set [6] deals with Chikungunya virus. Kind of data set: Antiviral activity against Chikungunya virus LR2006-OPY1 infected in human Huh7.5 cells after 48 hrs by luciferase reporter gene assay. Type of data set: functional, organism-based. The settings on record: LR2006-OPY1, Huh7.5, 48 h.
A short description of data set [7]: Cytotoxicity against BHK21 cells in presence of ATP by Celltiter-Glo assay. It is filed as cell-based, Mesocricetus auratus. As to conditions: hamster, BHK-21 cells. A general note: ATP-based viability assays read luminescence as a measure of living cells.
The nature of data set [8]: Cytotoxicity against human Huh7.5 cells in presence of ATP by Celltiter-Glo assay. Type of data set: cell-based.
Data set [9] in a line: Selectivity index, ratio of CC50 for BHK21 cells to EC50 for Chikungunya virus. It is filed as toxicity. The settings on record: hamster, BHK-21 cells; read-out: Ratio CC50/EC50.
Data set [10] is described as follows: Selectivity index, ratio of CC50 for human Huh7.5 cells to EC50 for Chikungunya virus. Type of data set: toxicity. The settings on record: read-out: Ratio CC50/EC50.
In data set [11] the test system is Chikungunya virus. The data set is described as follows: Antiviral activity against Chikungunya virus at 0.006 to 300 uM by cell based luciferase reporter gene assay relative to control. It is filed as functional.
The test system of data set [12] is Chikungunya virus. Kind of data set: Antiviral activity against Chikungunya virus 899 infected in African green monkey Vero cells assessed as inhibition of virus-induced cytopathogenic effect measured on day 5 post infection by MTS/PMS based microscopic analysis. Type of data set: functional, organism-based. The settings on record: Chikungunya virus, 899, Vero, 120 h.

The subject of data set [13] is Vero. The data set is described as follows: Cytotoxicity against African green monkey Vero cells assessed as reduction in cell viability measured on day 5 post dose by MTS/PMS based microscopic analysis. The settings on record: chlorocebus sabaeus.
Data set [14] relates to Chikungunya virus. The data set is described as follows: Antiviral activity against Chikungunya virus infected in African green monkey Vero cells after 72 hrs by MTT dye-based assay. Type of data set: functional, organism-based.
For data set [15], the system named is Chikungunya virus. Kind of data set: Antiviral activity against Chikungunya virus infected in BHK-21 cells by RT-qPCR analysis. It is filed as functional, organism-based.
Data set [16] deals with Chikungunya virus. Kind of data set: Antiviral activity against Chikungunya virus 0611aTw infected in BHK-21 cells by RT-qPCR analysis. It is filed as functional, organism-based.
For data set [17], the system named is Chikungunya virus. Kind of data set: Antiviral activity against Chikungunya virus 0810bTw infected in BHK-21 cells by RT-qPCR analysis. Type of data set: functional, organism-based.
Data set [18] can be described thus: Cytotoxicity against BHK21 cells assessed as reduction in cell viability after 16 hrs by CCK-8 assay. Type of data set: cell-based, Mesocricetus auratus. The settings on record: hamster, BHK-21 cells.
A short description of data set [19]: Selectivity index, ratio of CC50 for BHK-21 cells to EC50 for Chikungunya virus. It is filed as toxicity. As to conditions: hamster, read-out: Ratio CC50/EC50.
Data set [20] can be described thus: Selectivity index, ratio of CC50 for BHK-21 cells to EC50 for Chikungunya virus 0611aTw. As to conditions: hamster, read-out: Ratio CC50/EC50. It is filed as toxicity.
Data set [21] can be described thus: Selectivity index, ratio of CC50 for BHK-21 cells to EC50 for Chikungunya virus 0810bTw. It is filed as toxicity. The settings on record: hamster, read-out: Ratio CC50/EC50.
The test system of data set [22] is Chikungunya virus. Kind of data set: Antiviral activity against Chikungunya virus infected in human U2OS cells by RT-qPCR analysis. Type of data set: functional, organism-based.
The nature of data set [23]: Cytotoxicity against human U2OS cells assessed as reduction in cell viability after 16 hrs by CCK-8 assay. Type of data set: cell-based.
Data set [24] is described as follows: Selectivity index, ratio of CC50 for human U2OS cells to EC50 for Chikungunya virus. As to conditions: read-out: Ratio CC50/EC50. Type of data set: toxicity.
In data set [25] the test system is Chikungunya virus. Kind of data set: Antiviral activity against Chikungunya virus infected in African green monkey Vero cells. It is filed as functional, organism-based.
In data set [26] the test system is Chikungunya virus. The data set is described as follows: Antiviral activity against Chikungunya virus KC969207 infected in African green monkey Vero cells after 48 hrs by MTT dye-based assay. Type of data set: functional, organism-based.
A short description of data set [27]: Cytotoxicity against African green monkey Vero cells assessed as reduction in cell viability after 4 days by MTT assay. Type of data set: cell-based. The settings on record: chlorocebus sabaeus.
Data set [28] is described as follows: Selectivity index, ratio of CC50 for African green monkey Vero cells to IC50 for Chikungunya virus KC969207. It is filed as toxicity. The settings on record: read-out: Ratio CC50/IC50.

≈ marks a conversion by molar mass, not a printed value.

Regarding `O=c1cnn([C@@H]2O[C@H](CO)[C@@H](O)[C@H]2O)c(=O)[nH]1` [6-AZAURIDINE], the concentration giving a half-maximal response (EC50) in data set [1] is 0.82 µM.

For the molecule `O=C(O)[C@H]1O[C@@H](Oc2cc3oc(-c4ccccc4)cc(=O)c3c(O)c2O)[C@H](O)[C@@H](O)[C@@H]1O` [BAICALIN], the half-maximal inhibitory concentration (IC50) in data set [2] is 7 µM. In data set [3], the selectivity ratio came out at 188. The same molecule yielded a Ki in [4] of 0.064 µM.

For `COc1ccc2cc3[n+](cc2c1OC)CCc1cc2c(cc1-3)OCO2` [BERBERINE], the values for the EC50 in data set [5] and in data set [6] were 1.8 µM and 1.9 µM, respectively. The 50% cytotoxic concentration (CC50) in [7] and in data set [8] was more than 100 µM each time. For the same molecule, the figures for the selectivity ratio in [9] and in [10] were more than 55.6 and more than 52.6, respectively. This molecule also displayed an Activity in data set [11] of more than 85%.

Take `CC1=C(/C=C/C(C)=C/C=C/C(C)=C/C(=O)Nc2ccc(O)cc2)C(C)(C)CCC1` [FENRETINIDE]: the half-maximal effective concentration (EC50) in data set [5] came to 3.1 µM; in data set [6], 0.5 µM. The CC50 in [7] was found to be 31.5 µM; in data set [8], 15.6 µM. Besides, the figures for the selectivity ratio in data set [9] and in data set [10] were 10.3 and 29.9, respectively. This molecule registered an Activity in [11] of 65%.

As to `O=c1c(O)c(-c2ccc(O)c(O)c2)oc2cc(O)ccc12` [FISETIN], in data set [2], the half-maximal inhibitory concentration (IC50) worked out at 29.5 µM. In [3], the selectivity ratio stood at 23.

Take `Cn1c2ccccc2c2c3c(c4c5ccccc5n(CCC#N)c4c21)CNC3=O` [GO-6976]: the EC50 in data set [12] was more than 6 µM. The 50% cytotoxic concentration (CC50) in [13] came to 6 µM.

In data set [14], `O=c1cc(-c2ccc(O)c(O)c2)oc2cc(O)cc(O)c12` [LUTEOLIN] registered an IC50 of 22.5 to 127 µM.

Take `O=C1C[C@@H](c2ccc(O)cc2)Oc2cc(O)cc(O)c21` [NARINGENIN]: the Ki in [4] was determined as 0.685 µM.

Turning to `O=C(Nc1ccc([N+](=O)[O-])cc1Cl)c1cc(Cl)ccc1O` [NICLOSAMIDE], the EC50 in data set [15] stood at 0.95 µM; in [16], 0.85 µM; in data set [17], 0.9 µM; in [22], 0.36 µM. The CC50 at 16 h in [18] and in [23] was more than 20 µM each time. The selectivity ratio in data set [19] was more than 21; in [20], more than 23.5; in data set [21] it was more than 22.2; in data set [24], more than 55.5.

As for `CC(=O)Oc1ccccc1C(=O)Nc1ncc([N+](=O)[O-])s1` [NITAZOXANIDE], the EC50 was 2.96 µM in [15], 1.96 µM in [16], 4.95 µM in [17] and 3.01 µM in data set [22]. For the same molecule, the CC50 at 16 h in data set [18] and in [23] was 25 µM each time. For the same molecule, the selectivity ratio in data set [19] worked out at 8.45; in data set [20] it was 12.8; in data set [21] it was 5.05; in data set [24], 8.31.

With `O=c1c(O)c(-c2ccc(O)c(O)c2)oc2cc(O)c(O)c(O)c12` [QUERCETAGETIN], the IC50 in [2] came out at 25300 µM. The selectivity ratio in data set [3] is 16.3. Further, the affinity in data set [4] corresponds to a Ki of 0.489 µM.

As to `C=C[C@H]1CN2CC[C@H]1C[C@H]2[C@H](O)c1ccnc2ccc(OC)cc12` [QUININE], the IC50 in [25] worked out at 0.1 µg/mL (≈ 0.308 µM).

As for `NC(=O)c1ncn([C@@H]2O[C@H](CO)[C@@H](O)[C@H]2O)n1` [RIBAVIRIN], the IC50 in [26] came to 3.06 µM. In data set [27], the CC50 at 96 h came to 1620 µM. Moreover, the selectivity ratio in [28] was found to be 529. In addition, in data set [1], the 50% effective concentration (EC50) came out at 341 µM.

Consider `COc1cc(C2Oc3cc([C@H]4Oc5cc(O)cc(O)c5C(=O)[C@@H]4O)ccc3OC2CO)ccc1O` (stereo not given in full) [SILIBININ], for which the IC50 in data set [14] lay within 22.5 to 127 µM.

Take `CN1CCN(c2nc(C3=C(c4c[nH]c5ccccc45)C(=O)NC3=O)c3ccccc3n2)CC1` [SOTRASTAURIN]: the EC50 in data set [12] was more than 66 µM. Besides, in data set [13], the 50% cytotoxic concentration (CC50) was found to be 66 µM.
